The record followed here is patent US10564150B2, “Cell mediated immune response assay” (priority 2012, dated 2020).

Molecules are shown by their SMILES.

Assay [1] relates to whole blood from donors; IFN-gamma response to CMV antigens. Description: QFN CMV assay with four different non-reducing sugars. It counts as cell-based, human. To be noted: for response to the CMV antigens (percentage increase in IFN-gamma IU/ml over the non-additive tube): 2 mg/ml final blood concentration, 5 donors, background subtracted. On the procedure: For this experiment, four different non-reducing sugars were added to QFN CMV antigen tubes and a corresponding Nil tube. To reach a final blood concentration of 2 mg/ml, a corresponding solution of sucrose, trehalose, mannitol and raffinose in PBS was added to whole blood obtained from 5 donors. […] The assay was run in accordance with the QFN package insert which is an established assay. The x-axis (see FIG. 3) indicates the tested conditions. The background (value from Nil tubes with/without the addition of the respective sugar) was subtracted from the corresponding CMV tube and the percentage increase in the IFN-gamma value (IU/ml) over the non-additive tube calculated (y axis).

Assay [2] concerns whole blood IFN-gamma response to EBNA-1 from the Epstein-Barr virus. Description: QuantiFERON assay measuring anti-EBV cellular immune responses (EBNA-1 peptides) plus/minus trehalose. It counts as cell-based. On the procedure:
Investigations using QuantiFERON technology to measure responses to the model antigen EBNA-1 from the Epstein-Barr virus were performed to assess increases in assay sensitivity induced by the addition of non-reducing sugars to the incubation mixture. Briefly, EBNA-1 peptides were added to a blood collection tube, plus/minus 3 concentrations of a trehalose solution (0.5, 1.0 or 2.0 mg/ml trehalose). QuantiFERON assay measuring anti-EBV cellular immune responses was run according to the manufacturer's instructions. The IFN-gamma response was determined and compared depending on the concentration of trehalose. […] A concentration of 2 mg/ml trehalose provided the best results in this test assay.

The test system of assay [3] is blood from healthy donors; CD8+ T cells, IFN-gamma response to Cytomegalovirus peptides. Description: QFN-CMV assay with addition of trehalose. It counts as cell-based, human. On the procedure: QuantiFERON (QFN) CMV is a CE registered assay monitoring T cell immune memory directed against antigens derived from the Cytomegalovirus. The QFN-CMV blood tubes contain peptides designed to specifically activate CD8+ T cells to produce interferon gamma (IFN-gamma). These tubes only contain peptide and heparin, with no addition of any sugar molecule.
This experiment aimed to investigate the effect on the IFN-gamma response when the non-reducing sugar, trehalose, was added to QFN-CMV tubes. 0, 1, 5 or 10 mg/ml of a trehalose (in water) solution was added to QFN-CMV blood collection tubes. 1 ml of blood from 17 healthy donors with a known anti-CMV T cell response was then added to each of the four tubes, and in addition a Nil tube and a Mitogen tube were run as controls. The QFN assay was then run according to the package insert. All values had the Nil value subtracted. IFN-gamma levels in IU/ml were normalized against the respective QFN-CMV+0 mg/ml trehalose (untreated control) to generate a ‘fold-change’ unit; to control for inter-donor variation in response magnitude. Healthy donors without a detectable anti-CMV immune response were included to control against non-specific IFN-gamma induction by trehalose.

Assay [4] relates to whole blood from subjects with MTB infection; IFN-gamma response to Mycobacterium tuberculosis antigens ESAT-6 and CFP-10. Description: QFN-TB antigen tubes manufactured with or without trehalose. Format: cell-based, human. Particulars: trehalose tube versus sugar free tube; 20 subjects with MTB infection; paired one-tailed t test, P=0.0005.

`OC[C@@H](O)[C@@H](O)[C@H](O)[C@H](O)CO` [mannitol]: the “response to the CMV antigens (percentage increase in IFN-gamma IU/ml over the non-additive tube)” value in assay [1] was “increased response”.

For `OC[C@H]1O[C@H](OC[C@H]2O[C@H](O[C@]3(CO)O[C@H](CO)[C@@H](O)[C@@H]3O)[C@H](O)[C@@H](O)[C@@H]2O)[C@H](O)[C@@H](O)[C@H]1O` [raffinose], the “response to the CMV antigens (percentage increase in IFN-gamma IU/ml over the non-additive tube)” value in assay [1] is “increased response”.

On to `OC[C@H]1O[C@@](CO)(O[C@H]2O[C@H](CO)[C@@H](O)[C@H](O)[C@H]2O)[C@@H](O)[C@@H]1O` [sucrose], for which the “response to the CMV antigens (percentage increase in IFN-gamma IU/ml over the non-additive tube)” value in assay [1] was “increased response”.

On to `OC[C@H]1O[C@H](O[C@H]2O[C@H](CO)[C@@H](O)[C@H](O)[C@H]2O)[C@H](O)[C@@H](O)[C@@H]1O` [trehalose], for which the IFN-gamma response result in assay [2] (0.5, 1.0 or 2.0 mg/ml trehalose, with increasing concentration) is listed as “increase in IFN-gamma response”. Moreover, the “trehalose concentration providing the best results” value in assay [2] (of 0.5, 1.0 and 2.0 mg/ml tested) worked out at 2 mg/mL. Also, the “mean level of IFN-gamma (fold change versus matched untreated control)” value in assay [3] (0, 1, 5 or 10 mg/ml trehalose, 17 healthy donors with known anti-CMV T cell response, Nil subtracted) is given as “concentration-dependent increase”. In addition, in assay [3] (5 and 10 mg/ml trehalose, Friedmans test with Dunns multiple comparisons test), the “IFN-gamma fold change versus untreated control, significance” value was “significant increase”. Besides, the “background level of IFN-gamma in CMV-negative control donors” value in assay [3] (trehalose added, data not shown) was “No significant increase”. In addition, the “quantitative response of the assay (IFN-gamma IU/ml, nil subtracted)” value in assay [4] is listed as “significantly enhanced”. Further, the “response to the CMV antigens (percentage increase in IFN-gamma IU/ml over the non-additive tube)” value in assay [1] was “increased response”. For the same molecule, the “rank of the increase among the four non-reducing sugars” value in assay [1] (2 mg/ml, order trehalose, mannitol, sucrose, raffinose) is on record as “highest increase”.
